Laboratory results taken from ChEMBL document CHEMBL5149986, “Spliceostatins and Derivatives: Chemical Syntheses and Biological Properties of Potent Splicing Inhibitors” (J Nat Prod, 2021).

Key:
MCF7 = assay: Cytotoxicity against human MCF7 cells incubated for 7 to 10 days by MTS assay; assay type: functional; conditions: time 7-10 day
L1210 = assay: Cytotoxicity against mouse L1210 cells assessed as inhibition in cell growth; assay type: functional, cell-based
HCT-116 = assay: Cytotoxicity against human HCT-116 cells assessed as inhibition in cell growth; assay type: functional, cell-based
HCT-116/VM46 = assay: Cytotoxicity against human HCT116/VM46 cells assessed as inhibition in cell growth; assay type: functional, cell-based
[1] = Cytotoxicity against human Jurkat-TAg cells assessed as cell growth inhibition measured after 48 hrs; assay type: functional, cell-based
[2] = Inhibition of pre-mRNA splicing in human HeLa nuclear extract in presence of ATP; assay type: cell-free
HeLa = assay: Potency index, ratio of test compound IC50 to Spliceostatin A IC50 for inhibition of pre-mRNA splicing in human HeLa nuclear extract in presence of ATP
MES-SA/Dx5 = assay: Cytotoxicity against human MES-SA/Dx5 cells assessed as inhibition in cell growth; assay type: functional, cell-based
MES-SA = assay: Cytotoxicity against human MES-SA cells assessed as inhibition in cell growth; assay type: functional, cell-based
[3] = Cytotoxicity against HEK293T cells assessed as inhibition in cell growth; assay type: toxicity, cell-based, HEK-293T; conditions: human

SMILES	IC50 (L1210) [nM]	IC50 (HCT-116) [nM]	IC50 (HCT-116/VM46) [nM]	IC50 [1] [nM]	IC50 [2] [nM]	also measured
CC(=O)O[C@@H](C)/C=C\C(=O)N[C@@H]1C[C@H](C)[C@H](C/C=C(C)/C=C/[C@H]2OC(C)(C)C[C@@]3(CO3)[C@@H]2O)O[C@@H]1C	0.44	0.56	0.51	–	–	GI50 (MCF7): 0.0102 nM
CC(=O)O[C@@H](C)/C=C\C(=O)N[C@@H]1C[C@H](C)[C@H](C/C=C(C)/C=C/[C@H]2O[C@](C)(O)CC3(CC3)[C@@H]2O)O[C@@H]1C	–	–	–	> 4000	–	–
CC(/C=C/[C@H]1OC(C)(C)C[C@@]2(CO2)[C@@H]1O)=C\C[C@@H]1O[C@H](C)[C@H](NC(=O)/C=C\[C@H](C)OC(=O)N2CCOCC2)C[C@@H]1C	7.8	0.49	0.55	–	–	–
CC(/C=C/[C@H]1OC(C)(C)C[C@@]2(CO2)[C@@H]1O)=C\C[C@@H]1O[C@H](C)[C@H](NC(=O)/C=C\[C@H](C)O)C[C@@H]1C	0.54	9.7	7.4	–	–	–
CC(/C=C/[C@H]1OC(C)(C)C[C@@]2(CO2)[C@@H]1O)=C\C[C@@H]1O[C@H](C)[C@H](NC(=O)/C=C\[C@H](C)OC(=O)N2CCSCC2)C[C@@H]1C	0.51	0.48	0.52	–	–	–
CC(=O)O[C@@H](C)/C=C\C(=O)N[C@@H]1C[C@H](C)[C@H](C/C=C(C)/C=C/[C@H]2O[C@](C)(O)C[C@@]3(CO3)[C@@H]2O)O[C@@H]1C	–	–	–	2	50	GI50 (MCF7): 1.1 nM
CC(=O)N[C@@H]1C[C@H](C)[C@H](C/C=C(C)/C=C/[C@H]2O[C@](C)(O)C[C@@]3(CO3)[C@@H]2O)O[C@@H]1C	–	–	–	1700	–	–
CC(=O)O[C@@H](C)/C=C\C(=O)N[C@@H]1C[C@H](C)[C@H](C/C=C(C)/C=C/[C@H]2O[C@@H](C)C[C@@]3(CO3)[C@@H]2O)O[C@@H]1C	–	–	–	1.6	–	–
CC(/C=C/[C@H]1OC(C)(C)C[C@@]2(CO2)[C@@H]1O)=C\C[C@@H]1O[C@H](C)[C@H](NC(=O)/C=C\[C@H](C)OC(=O)N2CCCCC2)C[C@@H]1C	0.6	0.68	0.59	–	–	–
CC(=O)O[C@@H](C)/C=C\C(=O)N[C@@H]1C[C@H](C)[C@H](C/C=C(C)/C=C/[C@H]2OC3(CC3)C[C@@]3(CO3)[C@@H]2O)O[C@@H]1C	–	–	–	–	20	Ratio IC50 (HeLa): 2
CC(=O)O[C@@H](C)/C=C\C(=O)N[C@H]1C[C@H](C)[C@H](C/C=C(C)/C=C/[C@H]2O[C@](C)(O)C[C@]3(CO3)[C@H]2O)O[C@@H]1C	–	–	–	–	20000	–
COC(=O)C[C@@H]1C[C@@]2(CO2)[C@H](O)[C@@H](/C=C/C(C)=C/C[C@@H]2O[C@H](C)[C@H](NC(=O)/C=C\[C@H](C)OC(C)=O)C[C@@H]2C)O1	–	–	–	–	400	IC50 (MES-SA/Dx5): 3.6 nM; IC50 (MES-SA): 0.32 nM; IC50 [3]: 0.36 nM
